According to patent US20240384268A1, “Oligonucleotides” (Hudson Institute of Medical Research, priority 2021, published 2024):
In the oligonucleotide strings, read from the 5' end, every base follows the letter of its sugar. An asterisk marks phosphorothioate; unmarked linkages are phosphodiester. Other units and linkages are bracketed, terminal groups are in braces. A string of capitals states the bases alone. d = 2'-deoxy (DNA); m = 2'-O-methyl

Molecular target: T1, human TLR7 (Homo sapiens, UniProt Q9NYK1)
T1 construct: HA; host or cells: 293XL-hTLR7-HA (HEK293)
T1 sequence (Q9NYK1 27-1049): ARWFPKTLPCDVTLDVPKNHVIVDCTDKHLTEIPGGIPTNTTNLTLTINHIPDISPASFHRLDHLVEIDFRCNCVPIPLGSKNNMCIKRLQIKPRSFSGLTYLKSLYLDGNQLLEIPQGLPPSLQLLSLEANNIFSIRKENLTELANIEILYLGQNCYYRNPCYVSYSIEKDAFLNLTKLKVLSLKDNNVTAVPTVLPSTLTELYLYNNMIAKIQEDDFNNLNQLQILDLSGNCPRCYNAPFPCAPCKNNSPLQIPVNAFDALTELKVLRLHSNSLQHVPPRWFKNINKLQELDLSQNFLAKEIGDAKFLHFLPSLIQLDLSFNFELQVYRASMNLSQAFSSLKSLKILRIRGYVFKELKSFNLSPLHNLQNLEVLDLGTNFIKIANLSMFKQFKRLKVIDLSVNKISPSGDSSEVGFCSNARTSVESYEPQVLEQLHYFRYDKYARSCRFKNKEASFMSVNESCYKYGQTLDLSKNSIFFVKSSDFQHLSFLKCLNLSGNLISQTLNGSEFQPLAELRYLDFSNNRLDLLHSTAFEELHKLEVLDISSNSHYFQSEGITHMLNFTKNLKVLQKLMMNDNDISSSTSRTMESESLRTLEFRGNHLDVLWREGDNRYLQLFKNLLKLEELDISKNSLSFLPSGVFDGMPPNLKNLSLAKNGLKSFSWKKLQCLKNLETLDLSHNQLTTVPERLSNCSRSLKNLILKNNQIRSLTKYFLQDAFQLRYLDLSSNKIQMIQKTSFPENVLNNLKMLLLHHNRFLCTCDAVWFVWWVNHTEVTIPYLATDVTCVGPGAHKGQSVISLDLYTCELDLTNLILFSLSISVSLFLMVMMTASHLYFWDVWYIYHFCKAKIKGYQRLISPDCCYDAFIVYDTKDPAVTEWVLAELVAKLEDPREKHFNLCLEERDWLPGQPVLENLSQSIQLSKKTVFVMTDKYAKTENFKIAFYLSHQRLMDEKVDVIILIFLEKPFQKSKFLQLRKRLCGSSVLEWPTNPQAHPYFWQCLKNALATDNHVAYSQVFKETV
Assay: HEK-TLR7 NF-κB-luciferase reporter, R848 stimulation
Format: cell-based
Conditions: for TLR7 100 nM (averaged NF-κB-Luciferase level relative to R848 condition): ASO 100 nM; for TLR7 100 nM (averaged NF-κB-Luciferase level relative to R848 condition) / TLR7 500 nM (averaged NF-κB-Luciferase level relative to R848 condition): relative to R848 only, given as fraction; for TLR7 500 nM (averaged NF-κB-Luciferase level relative to R848 condition): ASO 500 nM; for IC50 / TLR7 400 nM / TLR7 2 uM / inhibition of TLR7 by 3-mer 2′OMe oligos (in words) / inhibition of R848 sensing by TLR7, short pre-treatment (in words): HEK-TLR7; for IC50: oligo ~30-50 min before 1 μg/ml R848 overnight, read-out: IC50 (R848 sensing by TLR7); for TLR7 400 nM: 3mer 2'OMe ASO at 400 nM; for TLR7 400 nM / TLR7 2 uM: value relative to Ligand only = 1.000, NT = 0.000; for TLR7 2 uM: 3mer 2'OMe ASO at 2 uM; for inhibition of TLR7 by 3-mer 2′OMe oligos (in words): 400 nM and 2 μM 3-mer, ~30 min, R848 1 μg/ml; for inhibition of R848 sensing by TLR7, short pre-treatment (in words): 100-500 nM oligo 20-50 min before R848 1 μg/ml

Substance | TLR7 400 nM | TLR7 2 uM | also measured
GTTCAGTCCTGTCCAT (antisense; LNA-modified, pattern not given here) [HPRT LNA-292 V1] |  |  | TLR7 100 nM (averaged NF-κB-Luciferase level relative to R848 condition): 0.456; TLR7 500 nM (averaged NF-κB-Luciferase level relative to R848 condition): 0.114
T*T*A* G*G*G* T*T*A* G*G*G* T*T*A* G*G*G* T*T*A* G*G*G [A151, reference compound] |  |  | IC50: 132 nM
TCCAACACTTCGTGGG (antisense; LNA-modified, pattern not given here) [HPRT LNA-669 V1] |  |  | TLR7 100 nM (averaged NF-κB-Luciferase level relative to R848 condition): 0.318; TLR7 500 nM (averaged NF-κB-Luciferase level relative to R848 condition): 0.249
TCGTAGTTGCTTCCTA (antisense; LNA-modified, pattern not given here) [MB21D1-1181 LNA KL] |  |  | TLR7 100 nM (averaged NF-κB-Luciferase level relative to R848 condition): 0.380; TLR7 500 nM (averaged NF-κB-Luciferase level relative to R848 condition): 0.198
TGATGGCCTCCCATCT (antisense; LNA-modified, pattern not given here) [HPRT LNA-332 V1] |  |  | TLR7 100 nM (averaged NF-κB-Luciferase level relative to R848 condition): 0.657; TLR7 500 nM (averaged NF-κB-Luciferase level relative to R848 condition): 0.153
TGCACACTTCGTACCC (antisense; LNA-modified, pattern not given here) [CAMSAP1-4916 LNA V1] |  |  | TLR7 100 nM (averaged NF-κB-Luciferase level relative to R848 condition): 0.806; TLR7 500 nM (averaged NF-κB-Luciferase level relative to R848 condition): 0.299
TGGCCTCCCATCTCCT (antisense; LNA-modified, pattern not given here) [HPRT LNA-329 V1] |  |  | TLR7 100 nM (averaged NF-κB-Luciferase level relative to R848 condition): 0.877; TLR7 500 nM (averaged NF-κB-Luciferase level relative to R848 condition): 0.217
TGTGATGGCCTCCCAT (antisense; LNA-modified, pattern not given here) [HPRT LNA-334 V1] |  |  | TLR7 100 nM (averaged NF-κB-Luciferase level relative to R848 condition): 0.315; TLR7 500 nM (averaged NF-κB-Luciferase level relative to R848 condition): 0.090
TTCGTGGGGTCCTTTT (antisense; LNA-modified, pattern not given here) [HPRT LNA-661 V1] |  |  | TLR7 100 nM (averaged NF-κB-Luciferase level relative to R848 condition): 0.487; TLR7 500 nM (averaged NF-κB-Luciferase level relative to R848 condition): 0.178
TTTTGGCTGGGATCAA (antisense; LNA-modified, pattern not given here) [CAMSAP1-4697 LNA KL] |  |  | TLR7 100 nM (averaged NF-κB-Luciferase level relative to R848 condition): 0.564; TLR7 500 nM (averaged NF-κB-Luciferase level relative to R848 condition): 0.305
UAA (mU*mA*mA) | 1.126 | 1.029 | 
UAC (mU*mA*mC) | 1.161 | 1.003 | 
UAG (mU*mA*mG) | 1.158 | 0.918 | 
UAU (mU*mA*mU) | 1.086 | 0.935 | 
UCC (mU*mC*mC) | 1.166 | 0.958 | 
UCU (mU*mC*mU) | 1.196 | 0.956 | 
UGC (mU*mG*mC) | 1.057 | 0.782 | 
UGU (mU*mG*mU) | 1.108 | 0.984 | 
UUA (mU*mU*mA) | 0.997 | 1.042 | 
UUC (mU*mU*mC) | 0.536 | 0.642 | 
UUG (listed as RNA, chemistry not fully specified) | 0.945 | 1.074 | 

Substance | TLR7 400 nM | TLR7 2 uM | also measured
UUU (mU*mU*mU) | 0.861 | 1.084 | 
dA*dA*dA (DNA AAA; listed as DNA, chemistry not fully specified) | 1.352 | 0.867 | 
dA*dA*dC (DNA AAC; listed as DNA, chemistry not fully specified) | 1.019 | 0.770 | 
dA*dA*dG (DNA AAG; listed as DNA, chemistry not fully specified) | 1.247 | 0.876 | 
dA*dC*dA (DNA ACA; listed as RNA, chemistry not fully specified) | 1.234 | 0.831 | 
dA*dG*dA (DNA AGA; listed as DNA, chemistry not fully specified) | 1.219 | 0.795 | 
dA*dG*dC (DNA AGC; listed as DNA, chemistry not fully specified) | 1.401 | 0.726 | 
dC*dA*dA (CAA; listed as DNA, chemistry not fully specified) | 1.175 | 0.787 | 
dC*dA*dC (CAC; listed as RNA, chemistry not fully specified) | 1.330 | 0.932 | 
dC*dC*dA (CCA; listed as DNA, chemistry not fully specified) | 1.270 | 0.780 | 
dC*dC*dC (CCC; listed as DNA, chemistry not fully specified) | 1.196 | 0.993 | 
dC*dC*dG (CCG; listed as DNA, chemistry not fully specified) | 1.227 | 1.006 | 
dC*dG*dA (CGA; listed as DNA, chemistry not fully specified) | 1.112 | 0.907 | 
dG*dC*dC [GCC] | 1.360 | 0.645 | 
dG*dC*dG [GCG] | 1.185 | 0.627 | 
mAmUmC (mA*mU*mC) [AUC, 3-mer 2′OMe PS oligo] | 0.950 | 0.430 | inhibition of TLR7 by 3-mer 2′OMe oligos (in words): inhibiting TLR7
mC*mG*mU*T*T*C*C*C*C*C*C*C*C*C*C*C*C*C*C*C (CGUTTCCCCCCCCCCCCCCC; antisense; sugars from the 5' end m3 d17, all phosphorothioate, methylation of C not given here) [[C2]Mut1-v3-dC] |  |  | inhibition of R848 sensing by TLR7, short pre-treatment (in words): significantly altered TLR7 inhibition
mCmUmU (antisense mC*mU*mU) [660-3] | 1.277 | 0.913 | 
mG*mC*mG*mG*mU*A*T*C*C*A*T*G*T*C*C*mC*mA*mG*mG*mC (mG*mC*mG*mG*mU*dA*dT*dC*dC*dA*dT*dG*dT*dC*dC*mC*mA*mG*mG*mC; antisense) [C2-Mut1] |  |  | IC50: 44 nM
mG*mG*mU*A*T*C*C*C*C*C*C*C*C*C*C*C*C*C*C*C (GGUATCCCCCCCCCCCCCCC; antisense; sugars from the 5' end m3 d17, all phosphorothioate, methylation of C not given here) [[C2]Mut1-dC] |  |  | inhibition of R848 sensing by TLR7, short pre-treatment (in words): significantly higher TLR7 inhibition than dC20
mGmAmU (mG*mA*mU) [GAU, 3-mer 2′OMe PS oligo] | 1.406 | 0.580 | inhibition of TLR7 by 3-mer 2′OMe oligos (in words): selectively inhibited TLR7 sensing; IC50: 300 nM
